Patent publication US20110319463A1, “PREVENTIVE OR THERAPEUTIC AGENTS FOR OPTIC NERVE DISORDERS COMPRISING 4,6-DICHLORO-1H-INDOLE-2-CARBOXYLIC ACID DERIVATIVES OR SALTS THEREOF AS ACTIVE INGREDIENTS” (Saten Pharamaceuticals Co., Ltd., priority 2009, published 2011)

Tests used:
Assay type in all cases: in vivo
[1] = system: neurofilament light chain (NFL) expression level in the retinal tissue; experiment: NMDA-induced rat retinal disorder model, quantitative PCR evaluation of NFL expression after intravitreous administration; conditions: 10 nmol NMDA mixed with 15 nmol/eye compound intravitreously, retina isolated 1 day after, NFL corrected by GAPDH, non-treatment group = 100%, NMDA group = 0%
Method: In the NMDA-induced rat retinal disorder model, the efficacy of the test compounds were evaluated using as an index the expression level in the retinal tissue of the neurofilament light chain (hereinafter referred to also as “NFL”) which is one of major constituents of the optic nerve axon and is considered to be important in maintaining the morphology of the optic nerve axon. The rat 1 day after the intravitreous administration of NMDA was treated with a 100 mg/kg sodium pentobarbital injection solution by an intraperitoneal administration to accomplish a systemic anesthesia and then the eyeballs were enucleated, and the retina was isolated. […] RR037B). In accordance with the instruction attached to QuantiTect Multiplex PCR Kit (1000) (QIAGEN, catalog No. 204545), QuantiTect Multiplex PCR Master Mix, the synthesized cDNA, the primers/probe for NFL (Sigma, “Ordermade”) and the primers/probe for glycerylaldehyde 3-phosphate dehydrogenase (hereinafter referred to also as “GAPDH”) (Applied Biosystems, Catalog No. 4352338E) were mixed, and a quantitative PCR machine (Applied Biosystems, Catalog No. 7500-03) was employed to conduct a PCR reaction, whereby measuring the expression levels of NFL and GAPDH. From the NFL and GAPDH expression levels thus obtained, a relative NFL expression level was calculated by correcting the NFL expression level based on the housekeeping gene GAPDH expression level in accordance with Equation 2. […] Each group included 1 animal (2 eyeballs). % Relative NFL expression level=(NFL expression level/GAPDH expression level) [Equation 2] % NFL recovery=(EX−EO)/(EP−EO)×100 [Equation 3] wherein EP is a relative NFL expression level in the non-treatment group, EO is a relative NFL expression level in the group of 10 nmol intravitreous NMDA administration and EX is a relative NFL expression level in the group of intravitreous administration of 10 nmol NMDA mixed with each compound. 5 μL of an NMDA solution dissolved in a 30% (v/v) DMSO-containing purified water (10 nmol as NMDA) was administered intravitreously. […]

[2] = system: cell count in the retinal ganglion cell layer; experiment: NMDA-induced rat retinal disorder model, retinal section evaluation (GCL cell count) after oral administration; conditions: 10 nmol NMDA intravitreously, 30 mg/kg orally twice a day for 3 days, eyeballs enucleated 3 days after NMDA, non-treatment group = 100%, NMDA + base = 0%
From the text: A NMDA-induced rat retinal disorder model (Invest. Ophthalmol. Vis. Sci., 2003; 44:385-392) employed widely as an optic nerve disorder model was employed to evaluate the usefulness (retinal nerve cell death inhibiting effect) of the present compound.
A rat [Slc:SD, male, about 7 week-old) was allowed to inhale a gas containing 3 to 4% (v/v) vaporized isoflurane at a rate of 1 to 1.5 L air/min to accomplish a systemic introducing anesthesia, followed by a maintaining anesthesia with 2 to 3% (v/v) isoflurane. Thereafter, 5 μl of a solution of NMDA (Sigma, catalog No. M3262) dissolved at 2 mmol/L in a phosphate buffer (hereinafter referred to also as “PBS”) was given intravitreously (10 nmol as NMDA).
The rat 3 days after the intravitreous administration of the NMDA solution was treated with a 100 mg/kg sodium pentobarbital injection solution by an intraperitoneal administration to accomplish a systemic anesthesia and then the eyeballs were enucleated. The enucleated eyeballs were fixed in a 25%(w/v) glutaraldehyde: 10% (w/v) neutral buffered formalin=1:9 mixture. The fixed eyeballs were embedded with a paraffin and then sliced into retinal sections (3 μm in thickness), which were then subjected to a hematoxylin and eosin staining. Eight retinal sections were taken per eyeball at intervals of 45 μm so that the optic nerve papilla was included. Among these 8 sections, 3 sections were selected randomly, and a selected section was photographed for the retina of 700 to 900 μm in width with its center being located about 1.25 mm from the optic nerve papilla, using which the cell count in the retinal ganglion cell layer (hereinafter referred to also as “GCL cell count”) was calculated (average value). From the resultant GCL cell count, a % GCL cell count reduction inhibition of each test substance was calculated according to Equation 1 while assigning 100% to the non-treatment group and 0% to a group of 10 nmol NMDA given intravitreously+base given orally. Each group included 4 animals (7 to 8 eyeballs).
% GCL cell count reduction inhibition=(NX−NO)/(NU−NO)×100 [Equation 1] […]

[3] = Body weight evaluation in NMDA-induced rat retinal disorder model after oral administration; conditions: 10 nmol NMDA intravitreously, 30 mg/kg orally twice a day for 3 days; for Weight gain (average): from day of NMDA administration to eyeball enucleation, non-treatment group 14.1
Method: Over a period from the day of the intravitreous NMDA administration through the eyeball enucleation, each individual animal was weighed once a day. Based on the body weight of the individual animal on the day of the intravitreous NMDA administration, the difference from the body weight on the day of the eyeball enucleation was calculated and the weight gain of each individual animal was calculated (average value). Each group included 4 animals. 5 μL of an NMDA solution dissolved in PBS (10 nmol as NMDA) was administered intravitreously. A 0.5% (w/v) aqueous solution of methyl cellulose was given by a repetitive oral administration twice a day in a volume of 10 mL/kg for 3 days from the day of the intravitreous NMDA administration until 2 days later. On the day of the intravitreous NMDA administration, a 0.5% (w/v) aqueous solution of methyl cellulose was given orally two times which were about 1 hour before the intravitreous NMDA administration and 1 to 2 hours. 5 μL of an NMDA solution dissolved in PBS (10 nmol as NMDA) was administered intravitreously. Each test compound suspended in 0.5% (w/v) methyl cellulose solution was given at a dose of 30 mg/kg by a repetitive oral administration twice a day in a volume of 10 mL/kg for 3 days from the day of the intravitreous NMDA administration until 2 days later. On the day of the intravitreous NMDA administration, each test compound suspended in 0.5% (w/v) methyl cellulose solution was given orally at a dose of 30 mg/kg two times which were about 1 hour before the NMDA administration and 1 to 2 hours. As a control compound, memantine was employed. 5 μL of an NMDA solution in PBS (10 nmol as NMDA) was administered intravitreously. Memantine dissolved in 0.5% (w/v) methyl cellulose solution was given at a dose of 30 mg/kg by a repetitive oral administration twice a day in a volume of 10 mL/kg for 3 days from the day of the intravitreous NMDA administration until 2 days later. On the day of the intravitreous NMDA administration, memantine dissolved in 0.5% (w/v) methyl cellulose solution was given orally at a dose of 30 mg/kg two times which were about 1 hour before the NMDA administration and 1 to 2 hours.

O=C(/C=C/c1c(C(=O)O)[nH]c2cc(Cl)cc(Cl)c12)Nc1ccccc1 [Compound A′, Sodium (E)-4,6-dichloro-3-(3-oxo-3-(phenylamino)-1-propenyl)-1H-indole-2-carboxylate]
% NFL Recovery (%, average) [1]: 86.6% | % Inhibition of GLC cell count reduction [2]: 17.0% | Weight gain compared with the non-treatment group (in words) [3]: weight gain almost equivalent to that in the non-treatment group | Weight gain (average) [3]: 12.6

O=C(O)c1[nH]c2cc(Cl)cc(Cl)c2c1/C=C1\CCN(c2ccccc2)C1=O [Compound B′, sodium (E)-4,6-dichloro-3-((2-oxo-1-phenyl-3-pyrrolidinylidene)methyl)-1H-indole-2-carboxylate]
% NFL Recovery (%, average) [1]: 80.7% | % Inhibition of GLC cell count reduction [2]: 14.8% | Weight gain compared with the non-treatment group (in words) [3]: weight gain almost equivalent to that in the non-treatment group | Weight gain (average) [3]: 14.0

CC12CC3CC(C)(C1)CC(N)(C3)C2 [memantine, reference compound]
% NFL Recovery (%, average) [1]: 33.6% | % Inhibition of GLC cell count reduction [2]: 20.7% | Weight gain compared with the non-treatment group (in words) [3]: inhibited the weight gain | Weight gain (average) [3]: −3.6
